Tests used:
[1] = biological target: T1, CK1ε(h) (Homo sapiens, UniProt P49674); test: Eurofins KinaseProfiler off-target kinase inhibition; assay type: biochemical
T1 construct: purchased Eurofins (KinaseProfiler platform)
Procedure: (§1) In order to investigate the specificity of the inhibition of the target by the compound, in this study, the activity and selectivity of test compound 1 on the off-target kinases in related pathways were tested on the Eurofins kinaseProfiler™ platform, and compound screening and analysis were conducted using IC50 value as the indicator.
(§2) Compound 1 was detected for each selected kinase using the standard Eurofins Kinase Profiler™ protocol, which followed the relevant standard operating procedures. The IC50 values of the inhibitory activity of the test compound 1 on 67 kinases including Abl(h), B-Raf(h), BTK(h) and JAK(h) were analyzed.

[2] = biological target: T2, MKK6(h) (Homo sapiens, UniProt P52564); test: as above; assay type: biochemical
T2 construct: purchased Eurofins (KinaseProfiler service)
Procedure: as §1, §2

[3] = biological target: T3, Aurora-B(h) (Homo sapiens, UniProt Q96GD4); test: as above; assay type: biochemical
T3 construct: purchased Eurofins (KinaseProfiler platform)
Procedure: as §1, §2

[4] = biological target: T4, IKKβ(h) (Homo sapiens, UniProt O14920); test: as above; assay type: biochemical
T4 construct: purchased Eurofins (KinaseProfiler platform)
Procedure: as §1, §2

[5] = biological target: T5, FGFR2(h) (Homo sapiens, UniProt P21802); test: as above; assay type: biochemical
T5 construct: purchased Eurofins (KinaseProfiler service)
Procedure: as §1, §2

[6] = biological target: T6, Rse(h) (Homo sapiens, UniProt Q06418); test: as above; assay type: biochemical
T6 construct: purchased Eurofins (KinaseProfiler platform)
Procedure: as §1, §2

[7] = biological target: T7, JAK2(h) (Homo sapiens, UniProt O60674); test: as above; assay type: biochemical
T7 construct: purchased Eurofins (KinaseProfiler service)
Procedure: as §1, §2

[8] = biological target: T8, B-Raf(h) (Homo sapiens, UniProt P15056); test: as above; assay type: biochemical
T8 construct: purchased Eurofins (KinaseProfiler platform)
Procedure: as §1, §2

[9] = biological target: T9, mTOR/FKBP12(h) (Homo sapiens, UniProt P42345); test: as above; assay type: biochemical
T9 construct: purchased Eurofins (KinaseProfiler service)
Procedure: as §1, §2

[10] = biological target: T10, SAPK4(h) (Homo sapiens, UniProt O15264); test: as above; assay type: biochemical
T10 construct: purchased Eurofins (KinaseProfiler platform)
T10 sequence (O15264 whole entry): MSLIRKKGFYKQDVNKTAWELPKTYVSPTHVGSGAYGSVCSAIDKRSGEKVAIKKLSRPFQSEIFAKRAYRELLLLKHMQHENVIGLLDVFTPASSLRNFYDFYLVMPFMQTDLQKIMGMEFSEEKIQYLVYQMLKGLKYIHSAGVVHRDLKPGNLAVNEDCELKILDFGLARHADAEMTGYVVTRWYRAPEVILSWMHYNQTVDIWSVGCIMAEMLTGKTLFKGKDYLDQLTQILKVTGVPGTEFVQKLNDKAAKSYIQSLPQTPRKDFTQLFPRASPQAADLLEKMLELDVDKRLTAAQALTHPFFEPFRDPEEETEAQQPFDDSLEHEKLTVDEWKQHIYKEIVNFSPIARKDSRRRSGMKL
Procedure: as §1, §2

[11] = biological target: T11, MKK4(m) (Mus musculus, UniProt P47809); test: as above; assay type: biochemical
T11 construct: purchased Eurofins (KinaseProfiler service)
Procedure: as §1, §2

[12] = biological target: T12, SAPK2a(h) (Homo sapiens, UniProt Q16539); test: as above; assay type: biochemical
T12 construct: purchased Eurofins (KinaseProfiler platform)
Procedure: as §1, §2

[13] = biological target: T13, Flt1(h) (Homo sapiens, UniProt P17948); test: as above; assay type: biochemical
T13 construct: purchased Eurofins (KinaseProfiler platform)
Procedure: as §1, §2

[14] = biological target: T14, MSK1(h) (Homo sapiens, UniProt O75582); test: as above; assay type: biochemical
T14 construct: purchased Eurofins (KinaseProfiler service)
T14 sequence (O75582 whole entry): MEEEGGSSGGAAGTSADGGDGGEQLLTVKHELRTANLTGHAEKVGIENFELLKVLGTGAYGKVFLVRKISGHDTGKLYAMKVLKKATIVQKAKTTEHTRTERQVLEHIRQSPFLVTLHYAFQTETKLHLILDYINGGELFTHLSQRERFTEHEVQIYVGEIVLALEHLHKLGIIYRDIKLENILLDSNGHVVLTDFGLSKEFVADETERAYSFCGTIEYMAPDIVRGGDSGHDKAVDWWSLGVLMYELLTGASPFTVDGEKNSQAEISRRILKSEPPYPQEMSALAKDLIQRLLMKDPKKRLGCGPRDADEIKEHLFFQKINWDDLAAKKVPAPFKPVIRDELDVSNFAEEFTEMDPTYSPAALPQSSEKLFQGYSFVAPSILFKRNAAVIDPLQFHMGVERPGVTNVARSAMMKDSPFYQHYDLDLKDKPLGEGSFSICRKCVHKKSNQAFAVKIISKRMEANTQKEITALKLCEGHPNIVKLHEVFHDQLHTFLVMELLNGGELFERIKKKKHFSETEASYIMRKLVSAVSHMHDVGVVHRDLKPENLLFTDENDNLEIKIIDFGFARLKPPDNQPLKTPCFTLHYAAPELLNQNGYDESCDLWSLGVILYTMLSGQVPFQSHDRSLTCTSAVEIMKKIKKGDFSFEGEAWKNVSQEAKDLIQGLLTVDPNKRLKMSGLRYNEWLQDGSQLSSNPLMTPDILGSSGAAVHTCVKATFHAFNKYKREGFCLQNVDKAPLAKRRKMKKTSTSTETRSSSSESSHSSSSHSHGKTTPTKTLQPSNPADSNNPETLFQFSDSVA
Procedure: as §1, §2

[15] = biological target: T15, ErbB2(h) (Homo sapiens, UniProt P04626); test: as above; assay type: biochemical
T15 construct: purchased Eurofins (KinaseProfiler platform)
Procedure: as §1, §2

[16] = biological target: T16, Fyn(h) (Homo sapiens, UniProt P06241); test: as above; assay type: biochemical
T16 construct: purchased Eurofins (KinaseProfiler platform)
Procedure: as §1, §2

[17] = biological target: T17, Itk(h) (Homo sapiens, UniProt Q08881); test: as above; assay type: biochemical
T17 construct: purchased Eurofins (KinaseProfiler service)
T17 sequence (Q08881 whole entry): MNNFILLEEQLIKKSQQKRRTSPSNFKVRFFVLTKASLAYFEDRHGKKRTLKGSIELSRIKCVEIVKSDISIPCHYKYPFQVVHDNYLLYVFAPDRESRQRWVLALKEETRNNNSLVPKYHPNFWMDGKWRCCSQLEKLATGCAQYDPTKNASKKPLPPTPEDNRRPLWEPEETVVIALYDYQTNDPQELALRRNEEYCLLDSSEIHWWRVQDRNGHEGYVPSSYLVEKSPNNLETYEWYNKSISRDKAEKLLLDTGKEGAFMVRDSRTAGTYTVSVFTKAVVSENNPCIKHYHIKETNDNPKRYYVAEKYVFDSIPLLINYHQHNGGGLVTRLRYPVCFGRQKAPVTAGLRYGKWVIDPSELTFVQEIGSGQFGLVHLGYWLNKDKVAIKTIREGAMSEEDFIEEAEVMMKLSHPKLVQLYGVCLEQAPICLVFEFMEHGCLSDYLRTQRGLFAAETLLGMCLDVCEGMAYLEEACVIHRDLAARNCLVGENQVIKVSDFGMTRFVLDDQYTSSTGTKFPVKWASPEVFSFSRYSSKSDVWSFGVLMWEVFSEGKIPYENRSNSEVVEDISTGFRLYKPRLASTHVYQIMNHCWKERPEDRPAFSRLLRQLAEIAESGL
Procedure: as §1, §2

[18] = biological target: T18, MEK2(h) (Homo sapiens, UniProt P36507); test: as above; assay type: biochemical
T18 construct: purchased Eurofins (KinaseProfiler service)
T18 sequence (P36507 whole entry): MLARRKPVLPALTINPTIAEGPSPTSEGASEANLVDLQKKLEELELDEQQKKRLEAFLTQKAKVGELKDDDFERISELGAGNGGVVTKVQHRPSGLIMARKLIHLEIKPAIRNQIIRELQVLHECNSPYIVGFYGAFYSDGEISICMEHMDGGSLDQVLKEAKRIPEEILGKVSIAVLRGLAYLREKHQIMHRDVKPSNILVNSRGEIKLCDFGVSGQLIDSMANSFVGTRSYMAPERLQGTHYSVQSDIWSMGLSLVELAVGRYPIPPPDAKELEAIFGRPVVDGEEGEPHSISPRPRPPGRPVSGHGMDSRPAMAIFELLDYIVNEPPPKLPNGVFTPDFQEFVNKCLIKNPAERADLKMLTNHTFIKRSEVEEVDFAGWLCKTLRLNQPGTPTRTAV
Procedure: as §1, §2

[19] = biological target: T19, TrkA(h) (Homo sapiens, UniProt P04629); test: as above; assay type: biochemical
T19 construct: purchased Eurofins (KinaseProfiler platform)
T19 sequence (P04629 33-796): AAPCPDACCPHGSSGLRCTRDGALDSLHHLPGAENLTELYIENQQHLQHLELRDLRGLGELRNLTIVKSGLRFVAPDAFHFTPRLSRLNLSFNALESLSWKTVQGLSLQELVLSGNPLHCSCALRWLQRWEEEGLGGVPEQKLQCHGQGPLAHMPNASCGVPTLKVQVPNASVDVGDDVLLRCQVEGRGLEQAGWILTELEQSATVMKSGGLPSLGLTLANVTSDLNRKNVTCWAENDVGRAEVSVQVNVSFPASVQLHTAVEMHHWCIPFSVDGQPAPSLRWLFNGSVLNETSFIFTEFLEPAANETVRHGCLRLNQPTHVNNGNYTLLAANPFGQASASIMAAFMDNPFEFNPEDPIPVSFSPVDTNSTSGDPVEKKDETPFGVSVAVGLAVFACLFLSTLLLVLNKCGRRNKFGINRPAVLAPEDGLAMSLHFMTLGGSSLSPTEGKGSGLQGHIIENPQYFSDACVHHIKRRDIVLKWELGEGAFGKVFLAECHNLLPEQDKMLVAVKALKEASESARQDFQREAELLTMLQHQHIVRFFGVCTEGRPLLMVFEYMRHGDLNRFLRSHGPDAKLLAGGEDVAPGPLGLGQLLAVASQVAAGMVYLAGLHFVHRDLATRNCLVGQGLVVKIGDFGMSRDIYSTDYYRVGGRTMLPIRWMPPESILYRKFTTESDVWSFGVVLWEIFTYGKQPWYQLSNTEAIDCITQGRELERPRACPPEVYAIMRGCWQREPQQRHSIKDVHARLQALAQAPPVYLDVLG
Procedure: as §1, §2

[20] = biological target: T20, CSK(h) (Homo sapiens, UniProt P41240); test: as above; assay type: biochemical
T20 construct: purchased Eurofins (KinaseProfiler platform)
T20 sequence (P41240 whole entry): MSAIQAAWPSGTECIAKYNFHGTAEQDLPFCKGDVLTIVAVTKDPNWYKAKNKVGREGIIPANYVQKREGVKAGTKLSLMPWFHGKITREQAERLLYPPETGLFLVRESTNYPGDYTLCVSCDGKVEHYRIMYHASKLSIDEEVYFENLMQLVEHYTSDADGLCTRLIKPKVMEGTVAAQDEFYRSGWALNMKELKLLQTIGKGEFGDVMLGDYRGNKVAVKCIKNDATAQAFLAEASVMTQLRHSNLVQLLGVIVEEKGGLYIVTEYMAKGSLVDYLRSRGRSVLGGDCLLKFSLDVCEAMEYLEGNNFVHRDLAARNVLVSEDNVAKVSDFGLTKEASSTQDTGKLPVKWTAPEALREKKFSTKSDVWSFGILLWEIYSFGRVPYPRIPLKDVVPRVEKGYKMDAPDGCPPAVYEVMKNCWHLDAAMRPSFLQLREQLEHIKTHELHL
Procedure: as §1, §2

[21] = biological target: T21, Ros(h) (Homo sapiens, UniProt P08922); test: as above; assay type: biochemical
T21 construct: purchased Eurofins (KinaseProfiler platform)
Procedure: as §1, §2

[22] = biological target: T22, JNK3(h) (Homo sapiens, UniProt P53779); test: as above; assay type: biochemical
T22 construct: purchased Eurofins (KinaseProfiler service)
Procedure: as §1, §2

[23] = biological target: T23, JAK3(h) (Homo sapiens, UniProt P52333); test: as above; assay type: biochemical
T23 construct: purchased Eurofins (KinaseProfiler service)
Procedure: as §1, §2

[24] = biological target: T24, ACTR2(h) (Homo sapiens, UniProt P27037); test: as above; assay type: biochemical
T24 construct: purchased Eurofins (KinaseProfiler platform)
T24 sequence (P27037 20-513): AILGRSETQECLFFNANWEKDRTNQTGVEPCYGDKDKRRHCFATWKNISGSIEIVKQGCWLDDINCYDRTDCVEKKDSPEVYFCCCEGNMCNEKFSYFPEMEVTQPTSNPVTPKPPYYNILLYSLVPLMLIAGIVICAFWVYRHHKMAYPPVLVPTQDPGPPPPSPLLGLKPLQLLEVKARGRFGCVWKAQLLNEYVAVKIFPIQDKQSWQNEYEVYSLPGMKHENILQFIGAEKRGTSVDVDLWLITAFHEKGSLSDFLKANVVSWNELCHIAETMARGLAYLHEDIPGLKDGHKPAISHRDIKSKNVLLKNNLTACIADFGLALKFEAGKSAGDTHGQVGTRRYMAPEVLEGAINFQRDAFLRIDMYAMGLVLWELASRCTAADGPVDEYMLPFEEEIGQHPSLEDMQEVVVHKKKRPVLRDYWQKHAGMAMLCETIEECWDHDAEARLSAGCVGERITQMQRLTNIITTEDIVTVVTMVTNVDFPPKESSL
Procedure: as §1, §2

[25] = biological target: T25, Hck(h)activated (Homo sapiens, UniProt P08631); test: as above; assay type: biochemical
T25 construct: purchased Eurofins (KinaseProfiler service)
T25 sequence (P08631 whole entry): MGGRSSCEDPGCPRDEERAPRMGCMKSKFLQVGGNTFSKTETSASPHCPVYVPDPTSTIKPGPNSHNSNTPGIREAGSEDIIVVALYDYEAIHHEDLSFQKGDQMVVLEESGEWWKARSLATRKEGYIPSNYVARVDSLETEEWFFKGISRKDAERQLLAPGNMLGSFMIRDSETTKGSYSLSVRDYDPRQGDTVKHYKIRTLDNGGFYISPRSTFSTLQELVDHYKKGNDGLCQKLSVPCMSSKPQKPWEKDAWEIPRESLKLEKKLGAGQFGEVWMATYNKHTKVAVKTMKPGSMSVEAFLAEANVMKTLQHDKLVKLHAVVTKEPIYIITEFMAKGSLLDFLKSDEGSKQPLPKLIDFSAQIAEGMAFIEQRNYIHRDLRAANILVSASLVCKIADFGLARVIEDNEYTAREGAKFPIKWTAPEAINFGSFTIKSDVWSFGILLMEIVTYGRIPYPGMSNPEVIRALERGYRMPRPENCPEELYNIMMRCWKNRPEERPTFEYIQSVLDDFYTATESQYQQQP
Procedure: as §1, §2

[26] = biological target: T26, mTOR(h) (Homo sapiens, UniProt P42345); test: as above; assay type: biochemical
T26 construct: purchased Eurofins (KinaseProfiler service)
Procedure: as §1, §2

[27] = biological target: T27, CYP2C9 (Homo sapiens, UniProt P11712); test: Inhibition of cytochrome P450 enzymes in human liver microsomes (LC-MS/MS); assay type: in vitro ADME
T27 construct: human liver microsome working solution was prepared; from tissue; host or cells: human liver microsomes
T27 sequence (P11712 whole entry): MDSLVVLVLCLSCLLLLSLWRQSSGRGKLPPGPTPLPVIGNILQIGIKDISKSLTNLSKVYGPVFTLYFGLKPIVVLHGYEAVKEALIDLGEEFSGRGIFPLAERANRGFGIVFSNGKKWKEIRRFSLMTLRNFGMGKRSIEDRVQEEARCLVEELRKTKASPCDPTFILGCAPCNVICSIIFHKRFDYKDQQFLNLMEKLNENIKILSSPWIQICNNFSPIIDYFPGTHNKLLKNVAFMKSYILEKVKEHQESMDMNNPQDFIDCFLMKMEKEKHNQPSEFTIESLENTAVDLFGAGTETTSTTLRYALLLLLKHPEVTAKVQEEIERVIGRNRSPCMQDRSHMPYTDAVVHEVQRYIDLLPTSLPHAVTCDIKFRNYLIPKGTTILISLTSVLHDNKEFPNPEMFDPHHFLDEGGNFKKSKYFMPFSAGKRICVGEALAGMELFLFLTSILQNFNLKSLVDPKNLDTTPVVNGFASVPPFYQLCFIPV
Procedure: (§3) In order to investigate the activity of the compound on human liver microsomal CYP450 enzyme, Liquid Chromatography-Mass Spectrometry/Mass Spectrometry (LC-MS/MS) method was used in this study to determine the inhibitory effect of compound 1 on five main subtypes (CYP1A2, 2C9, 2C19, 2D6, 3A4) of human hepatocyte CYP450 enzyme, and compound screening and analysis were conducted using IC50 value as the indicator.
(§4) • 1) A test compound and a standard inhibitor working solution (100×) were prepared; • 2) microsomes were taken out of a −80° C. freezer, thawed on ice, labeled with the date, and put back in the freezer immediately after use; • 3) 20 microliters of matrix solution was added to the corresponding wells; • 4) 20 microliters of phosphate buffered saline was added to the blank wells; • 5) 2 microliters of the test compound and positive control working solution were added to the corresponding wells; • 6) 2 microliters of solvent was added to each of the inhibitor-free wells and the blank wells; • 7) human liver microsome working solution was prepared; • 8) 158 microliters of HLM working solution was added to all wells of the incubation plate; • 9) the plate was heated in a 37° C. water bath for about 10 minutes; • 10) NADPH cofactor solution was prepared; • 11) 20 microliters of NADPH cofactor was added to all of the incubation wells; • 12) all CYPs were subjected to mixed culture in a 37° C. water bath for 10 minutes; • 13) at a certain point in time, the reaction was stopped by adding 400 microliters of cold solution (200 ng/mL of tolbutamide in acetonitrile and 200 ng/mL of Labetalol in acetonitrile); • 14) the samples were centrifuged at 4000 rpm for 20 minutes to precipitate proteins; • 15) 200 microliters of supernatant was transferred into 100 microliters of high performance liquid chromatography water, and shaked for 10 minutes; • 16) LC/MS/MS analysis was started.

[28] = biological target: T28, CYP1A2 (Homo sapiens, UniProt P05177); test: as above; assay type: in vitro ADME
T28 construct: human liver microsome working solution was prepared; from tissue; host or cells: human liver microsomes
Procedure: as §3, §4

**Q.** Which IC50 [1] does the source give for `c1cn2c(n1)c(Nc1ccc(N3CCOCC3)cc1)nc1ccc(-c3cn[nH]c3)cc12` [Compound 1] here?
**A.** Its IC50 is 385 nM.

**Q.** And the IC50 [2]?
**A.** Its IC50 is greater than 10000 nM.

**Q.** What about the IC50 [3] of the same molecule?
**A.** Its IC50 is 232 nM.

**Q.** And the IC50 [4]?
**A.** The IC50 was greater than 10000 nM.

**Q.** What about the IC50 [5] of the same molecule?
**A.** Its IC50 is greater than 10000 nM.

**Q.** What about the IC50 [6] of the same molecule?
**A.** The IC50 was greater than 10000 nM.

**Q.** What about the IC50 [7] of the same molecule?
**A.** The IC50 was 141 nM.

**Q.** What about the IC50 [8] of the same molecule?
**A.** Its IC50 is 91 nM.

**Q.** And the IC50 [9]?
**A.** Its IC50 is greater than 10000 nM.

**Q.** And the IC50 [10]?
**A.** The IC50 was greater than 10000 nM.

**Q.** What about the IC50 [11] of the same molecule?
**A.** Its IC50 is greater than 10000 nM.

**Q.** What about the IC50 [12] of the same molecule?
**A.** The IC50 was greater than 10000 nM.

**Q.** And the IC50 [13]?
**A.** The IC50 was 104 nM.

**Q.** And the IC50 [14]?
**A.** The IC50 was greater than 10000 nM.

**Q.** And the IC50 [15]?
**A.** Its IC50 is greater than 10000 nM.

**Q.** What about the IC50 [16] of the same molecule?
**A.** Its IC50 is 373 nM.

**Q.** What about the IC50 [17] of the same molecule?
**A.** The IC50 was 1850 nM.

**Q.** What about the IC50 [18] of the same molecule?
**A.** Its IC50 is greater than 10000 nM.

**Q.** What about the IC50 [19] of the same molecule?
**A.** The IC50 was 112 nM.

**Q.** What about the IC50 [20] of the same molecule?
**A.** Its IC50 is greater than 10000 nM.

**Q.** What about the IC50 [21] of the same molecule?
**A.** Its IC50 is greater than 10000 nM.

**Q.** And the IC50 [22]?
**A.** The IC50 was 279 nM.

**Q.** What about the IC50 [23] of the same molecule?
**A.** Its IC50 is 550 nM.

**Q.** And the IC50 [24]?
**A.** Its IC50 is greater than 10000 nM.

**Q.** And the IC50 [25]?
**A.** Its IC50 is 418 nM.

**Q.** What about the IC50 [26] of the same molecule?
**A.** Its IC50 is greater than 10000 nM.

**Q.** And the IC50 [27]?
**A.** Its IC50 is greater than 50 nM.

**Q.** And the IC50 [28]?
**A.** Its IC50 is greater than 50 nM.
